Source: the NIST ThermoML archive (doi:10.1016/j.fluid.2010.08.026)
± gives the expanded uncertainty stated by the source.

How the values were obtained:
[1] = Closed cell (Static) method; for Normal melting temperature: Crystal 1
[2] = Molar enthalpy of transition or fusion

SMILES | Normal melting temperature [1] [°C] | Molar enthalpy of transition or fusion ([2]; Crystal 1, Closed cell (Static) method) [kcal/mol] | vapor or sublimation pressure ([1]; 356.86 K, Liquid) [kPa] | Molar enthalpy of transition or fusion ([2]; Crystal, DSC) [kcal/mol]
CC(O)CNCC(C)O (stereo not given) [N-(2-hydroxypropyl)-2-hydroxy-1-propanamine] | 42.7 | 5.43 |  | 
CN(CCO)CCO [N-methyldiethanolamine] | -23 |  | 0.2 | 
CC(C)NC(C)C [diisopropylamine] |  |  |  | 5.43 ± 0.172
